In patent publication US7517857B2, “Immune-modulating peptide” (POSCO, priority 2002, dated 2009):
“Also recorded” adds a separate entry of the source. Where a SMILES comes first, the peptide text is derived from it. Where no end group is shown, it is not given here. [ ]: non-standard residue; d: D form.

Key:
FPRL1 [1] = target: T1, FPRL1 (Homo sapiens, UniProt P25090); assay: Exocytosis: β-hexosaminidase secretion in FPRL1-expressing RBL-2H3 cells; format: cell-based; conditions: for granule secretion / β-hexosaminidase release (words): FPRL1 cells, 10 μM of each peptide (WKYMVm also various concentrations)
T1 construct: expressed in transfected cells; host or cells: RBL-2H3 (rat basophilic leukemia) cells, G418-selected
T1 sequence (P25090 1-351): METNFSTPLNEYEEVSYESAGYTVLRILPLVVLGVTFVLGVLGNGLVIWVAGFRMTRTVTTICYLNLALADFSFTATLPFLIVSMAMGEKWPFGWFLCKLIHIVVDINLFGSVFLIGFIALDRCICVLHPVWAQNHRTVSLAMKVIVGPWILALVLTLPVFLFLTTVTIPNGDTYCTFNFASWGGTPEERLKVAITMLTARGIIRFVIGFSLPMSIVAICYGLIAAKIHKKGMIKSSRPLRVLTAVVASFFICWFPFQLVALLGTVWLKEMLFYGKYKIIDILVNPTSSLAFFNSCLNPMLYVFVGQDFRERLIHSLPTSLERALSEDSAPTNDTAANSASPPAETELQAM
Protocol: Granule secretion is one of the most important function of mast cells (20). The effect of WKYMVm on granule secretion was checked by measuring β-hexosaminidase secretion as described above (18). Briefly, RBL-2H3 cells (2×10^5/well) expressing FPR or FPRL1 were cultured overnight in a 24-well tissue culture plate. The cells were washed twice with Tyrode's buffer (137 mM NaCl, 12 mM NaHCO3, 5.6 mM glucose, 2.7 mM KCl, 1 mM CaCl2, 0.5 mM MgCl2, 0.4 mM NaH2PO4, 0.1g/100 ml BSA, and 25 mM HEPES, pH 7.4) and stimulated with each peptide. Various concentrations of WKYMVm were treated in FPR- or FPRL1-expressing RBL-2H3 cells (FIG. 5A). 1 μM of WKYMVm was used to stimulate two cell lines in the absence or presence of 10 μM BAPTA/AM (FIG. 5B). The reaction was terminated 20 min after stimulation by placing the plate on ice. Secretion of β-hexosaminidase into the medium was determined by incubating 50 μl of supernatant or cell lysate with 25 μl of 5 mM p-nitrophenyl-N-acetyl-β-D-glucosamide in 0.1 M sodium citrate buffer (pH 3.8) at 37° C. for 2 hr. At the end of the incubation, 50 μl of 0.4 M Na2CO3 were added. Absorbance was monitored at 405 nm. Data are means ±S.E. of a single representative of three experiments performed in triplicate. Values (means ±S.E.) were expressed as a percent of total β-hexosaminidase present in the cells.
10 μM of each peptide was treated in FPR- (FIG. 6A) or FPRL1-expressing RBL-2H3 cells (FIG. 6B). The peptide-induced secretion of β-hexosaminidase was determined as above. Data are means ±S.E. of a single representative of three experiments performed in triplicate.

FPR [2] = target: T2, FPR (Homo sapiens, UniProt P21462); assay: Chemotaxis of FPR-expressing RBL-2H3 cells (modified Boyden chamber); format: cell-based; conditions: FPR-expressing RBL-2H3 cells; various concentrations
T2 construct: expressed in transfected cells; host or cells: RBL-2H3 (rat basophilic leukemia) cells, G418-selected
T2 sequence (P21462 1-350): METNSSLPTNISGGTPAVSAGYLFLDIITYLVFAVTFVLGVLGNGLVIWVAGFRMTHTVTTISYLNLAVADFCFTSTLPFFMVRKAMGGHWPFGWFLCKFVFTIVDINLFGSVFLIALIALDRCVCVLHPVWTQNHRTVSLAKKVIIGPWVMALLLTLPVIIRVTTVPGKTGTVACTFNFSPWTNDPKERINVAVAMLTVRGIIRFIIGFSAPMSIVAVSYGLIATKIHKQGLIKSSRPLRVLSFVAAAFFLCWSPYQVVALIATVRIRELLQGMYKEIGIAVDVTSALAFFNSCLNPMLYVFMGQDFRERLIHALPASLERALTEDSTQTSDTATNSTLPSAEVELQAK
Protocol: Chemotaxis assays were performed using multiwell chambers (modified Boyden chamber assay) (Neuroprobe Inc., Gaithersburg, Md.) (18). Briefly, polycarbonate filters (8 μm pore size) were precoated with 50 μg/ml of rat type I collagen (Collaborative Biomedicals) in a HEPES-buffered RPMI 1640 medium. A dry coated filter was placed on a 96-well chamber containing different concentrations of peptides. RBL-2H3 cells expressing FPR or FPRL1 were suspended in RPMI at a concentration of 1×10^6 cells/ml of serum-free RPMI, and 25 μl of the suspension were placed onto the upper well of the 96-well chemotaxis chamber. After incubation for 4 hours at 37° C., non-migrated cells were removed by scraping them out, and cells that migrated across the filter were dehydrated, fixed, and stained with hematoxylin (Sigma, St. Louis, Mo.). The stained cells in five randomly chosen high power fields (HPF) (400×) in that well were then counted. […] The numbers of migrated cells were determined by counting them in a high power field (400×). The Data are presented as means ±SE of three independent experiments each performed in duplicate. The effect of the peptides of the present invention on cellular chemotaxis in FPR- or FPRL1-expressing RBL-2H3 cells was measured. Various concentrations of each peptide were used for the chemotaxis assay with FPR- or FPRL1-expressing RBL-2H3 cells. The numbers of migrated cells were determined by counting them in a high power field (400×). The Data are presented as means ±SE of two independent experiments each performed in duplicates.

FPR [3] = target: T2, FPR; assay: [Ca2+]i increase in FPR-expressing RBL-2H3 cells (fura-2); format: cell-based; conditions: for EC50 (nM), intracellular calcium increase: fura-2 loaded
Protocol: FPR-expressing RBL-2H3 cells were stimulated with 10 μM of each peptide, and [Ca^2+]i was determined. The level of [Ca^2+]i was determined fluorometrically by Grynkiewicz's method using fura-2/AM (15). Briefly, prepared cells were incubated with 3 μM fura-2/AM at 37° C. for 50 min in a fresh serum-free RPMI 1640 medium under continuous stirring. 2×10^6 cells were aliquoted for each assay in Ca^2+-free Locke's solution (154 mM NaCl, 5.6 mM KCl, 1.2 mM MgCl2, 5 mM HEPES, pH 7.3, 10 mM glucose, and 0.2 mM EGTA). Fluorescence changes at the dual excitation wavelengths of 340 nm and 380 nm and the emission wavelength of 500 nm were measured, and the calibrated fluorescence ratio was translated into [Ca^2+]i. The peak level of the increased [Ca^2+]i was monitored.

FPRL1 [4] = target: T1, FPRL1; assay: Displacement of 125I-labeled WKYMVm binding to FPRL1 (FPRL1-expressing RBL-2H3 cells); conditions: FIG. 2B
Protocol: From the finding that some of the peptides (WKGMVm (SEQ ID NO: 1), WKRMVm (SEQ ID NO: 11), D-Met^6 substituted peptides) could not induce a cytosolic calcium increase, it was checked whether the peptides can bind to FPR or not. Displacement of ^125I-labeled WKYMVm binding to FPR or FPRL1 by the peptides was monitored. FPR-expressing RBL-2H3 cells were incubated with [^125I] WKYMVm in the absence or presence of increasing amounts of unlabeled WKYMVm or the peptides of SEQ ID NOs: 1 to 24.
A ligand binding analysis was performed as modified from the previous report (16). The radioiodinated WKYMVm (^125I-labeled) was purchased from NEN Lifesciences (Boston, Mass.). Briefly, FPR- or FPRL1-expressing RBL-2H3 cells were seeded into 1×10^5 cells per well of a 24-well plate and cultured overnight. After blocking the cells with a blocking buffer (33 mM HEPES, pH 7.5, 0.1% BSA in RPMI) for 2 hr, a single concentration of ^125I-labeled WKYMVm was added to cells with a binding buffer (PBS containing 0.1% BSA) in the absence or presence of 50 μM unlabelled peptides and incubated for 3 hr at 4° C. with continuous shaking. Then the samples were washed 5 times with ice-cold binding buffer, and 200 μl of lysis buffer (20 mM Tris, pH 7.5, 1% Triton X-100) was added to each well. After 20 min of lysis at room temperature, the lysates were collected. Bound ^125I-labeled WKYMVm was measured for radioactivity for a γ-ray counter.

With `CSCC[C@H](NC(=O)CNC(=O)[C@H](CCCCN)NC(=O)[C@@H](N)Cc1c[nH]c2ccccc12)C(=O)N[C@H](C(=O)N[C@H](CCSC)C(N)=O)C(C)C` [WKGMVm-NH2, Trp-Lys-Gly-Met-Val-D-Met-NH2] (H-WKGMV[dM]-NH2; N-terminus assumed) the “granule secretion / β-hexosaminidase release (words)” value (FPRL1 [1]) was “stimulated granule secretion”, the “cellular chemotaxis” value (FPR [2]) was “induced cellular chemotaxis” and the “[Ca^2+]i increasing activity” value (FPR [3]) was “did not effect a [Ca^2+]i increase until 20 μM treatment”. For the same compound, the “EC50 (nM), intracellular calcium increase” value (FPR [3]) was “inactive” and the “inhibition of [^125I] WKYMVm binding” value (FPRL1 [4]) was “inhibited binding of [^125I] WKYMVm in a concentration-dependent manner”.

`CSCC[C@H](NC(=O)[C@H](CCCNC(=N)N)NC(=O)[C@H](CCCCN)NC(=O)[C@@H](N)Cc1c[nH]c2ccccc12)C(=O)N[C@H](C(=O)N[C@H](CCSC)C(N)=O)C(C)C` [WKRMVm-NH2, Trp-Lys-Arg-Met-Val-D-Met-NH2] (H-WKRMV[dM]-NH2; N-terminus assumed) was tested, and the “granule secretion / β-hexosaminidase release (words)” value (FPRL1 [1]) was “stimulated granule secretion”, the “cellular chemotaxis” value (FPR [2]) was “induced cellular chemotaxis” and the “EC50 (nM), intracellular calcium increase” value (FPR [3]) was “inactive”. For the same compound, the “inhibition of [^125I] WKYMVm binding” value (FPRL1 [4]) was “inhibited binding of [^125I] WKYMVm in a concentration-dependent manner”.

For `CSCC[C@H](NC(=O)[C@H](Cc1ccc(O)cc1)NC(=O)[C@H](CCCCN)NC(=O)[C@@H](N)Cc1c[nH]c2ccccc12)C(=O)N[C@H](C(=O)N[C@H](CCSC)C(N)=O)C(C)C` [WKYMVm-NH2, Trp-Lys-Tyr-Met-Val-D-Met-NH2, reference compound], the “concentration showing maximal β-hexosaminidase release” value (FPRL1 [1]; FPRL1-expressing RBL-2H3 cells) was 10 nM, the “granule secretion / β-hexosaminidase release (words)” value (FPRL1 [1]; listed as WKYMVm) was “caused β-hexosaminidase release in a concentration-dependent manner; also recorded: stimulated granule secretion” and the “granule secretion / β-hexosaminidase release (words)” value (FPRL1 [1]; listed as wkymvm) was “but not fMLF or wkymvm, stimulated granule secretion”. For the same compound, the “cellular chemotaxis” value (FPR [2]) was “induced cellular chemotaxis”, the “concentration showing maximal [Ca^2+]i increase activity” value (FPR [3]; data not shown) was “around 300 nM” and the “EC50 (nM), intracellular calcium increase” value (FPR [3]) was “inactive”. For the same compound, the “inhibition of [^125I] WKYMVm binding” value (FPRL1 [4]) was “inhibited binding of [^125I] WKYMVm in a concentration-dependent manner”.

In the case of “WKYMVE-NH2 [WKYMVE-NH2, Trp-Lys-Tyr-Met-Val-Glu-NH2]”, the “granule secretion / β-hexosaminidase release (words)” value (FPRL1 [1]) is reported as “stimulated granule secretion”, the “cellular chemotaxis” value (FPR [2]) is reported as “induced cellular chemotaxis” and the “EC50 (nM), intracellular calcium increase” value (FPR [3]) is reported as “inactive”.

In the case of “WKYMVR-NH2 [WKYMVR-NH2, Trp-Lys-Tyr-Met-Val-Arg-NH2]”, the “granule secretion / β-hexosaminidase release (words)” value (FPRL1 [1]) is reported as “stimulated granule secretion”, the “cellular chemotaxis” value (FPR [2]) is reported as “induced cellular chemotaxis” and the “EC50 (nM), intracellular calcium increase” value (FPR [3]) is reported as “inactive”.
